Experimental data reported in patent publication US20230129359A1, “MUSCARINIC RECEPTOR 4 ANTAGONISTS AND METHODS OF USE” (Neurocrine Biosciences, Inc., priority 2020, published 2023).

Target: T1, human M4 receptor (Homo sapiens, UniProt P08173)
T1 construct: expressed in transfected cells; host or cells: CHO cells
T1 sequence (P08173 1-479): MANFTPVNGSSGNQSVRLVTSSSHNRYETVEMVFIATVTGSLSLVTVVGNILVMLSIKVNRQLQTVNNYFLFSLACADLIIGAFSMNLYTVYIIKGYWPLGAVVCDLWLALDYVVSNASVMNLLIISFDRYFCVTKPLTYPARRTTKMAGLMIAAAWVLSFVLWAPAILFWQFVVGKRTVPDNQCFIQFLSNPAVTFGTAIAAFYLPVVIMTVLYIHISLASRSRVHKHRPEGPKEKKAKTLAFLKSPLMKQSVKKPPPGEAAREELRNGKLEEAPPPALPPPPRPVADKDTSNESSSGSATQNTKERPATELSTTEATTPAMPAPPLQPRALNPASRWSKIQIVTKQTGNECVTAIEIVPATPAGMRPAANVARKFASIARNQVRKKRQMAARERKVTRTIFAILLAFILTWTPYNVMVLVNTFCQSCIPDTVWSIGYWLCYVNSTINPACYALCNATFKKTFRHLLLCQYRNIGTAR
Experiment: Radioligand ([3H]N-methylscopolamine) binding assay, membranes from CHO cells expressing human M4 receptor
Conditions: Ki against human M4 receptor; membranes from CHO cells; tritiated N-methylscopolamine 1.5 nM; read-out: K
Procedure, shortened: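 Competition binding used CHO-cell membranes expressing human M4 with 1.5 nM [3H]N-methylscopolamine and twelve compound concentrations ([…]). Incubation was 90 minutes at 37 °C in 50 mM HEPES, 100 mM NaCl, 5 mM MgCl2, 1 mM EDTA, pH 7.4. Bound ligand was collected by filtration onto PEI-treated glass fibre for Ki.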

Molecule C[C@@H]1CN(c2nc3cc(F)ccc3o2)[C@@H](C)CN1C(=O)OC1CC2(C1)CN(Cc1ccccc1)C2 [Compound 443, 2-benzyl-2-azaspiro[3.3]heptan-6-yl (2R,5S)-4-(5-fluoro-1,3-benzoxazol-2-yl)-2,5-dimethylpiperazine-1-carboxylate] has a Ki of 10 to 100 nM.
Molecule C[C@@H]1CN(c2nc3ccc(F)cc3o2)C[C@H](C)N1C(=O)OC1CC2(C1)CN(Cc1ccccc1)C2 [Compound 444, 2-benzyl-2-azaspiro[3.3]heptan-6-yl (2R,6S)-4-(6-fluoro-1,3-benzoxazol-2-yl)-2,6-dimethylpiperazine-1-carboxylate] has a Ki of 10 to 100 nM.
With C[C@@H]1CN(c2nc3ccc(F)cc3o2)C[C@@H](C)N1C(=O)OC1CC2(C1)CN(Cc1ccccc1)C2 [Compound 445, 2-benzyl-2-azaspiro[3.3]heptan-6-yl (2R,6R)-4-(6-fluoro-1,3-benzoxazol-2-yl)-2,6-dimethylpiperazine-1-carboxylate] the Ki was 10 to 100 nM.
Work on C[C@@H]1CN(c2nc3ccc(F)cc3o2)[C@@H](C)CN1C(=O)OC1CC2(C1)CN(Cc1ccccc1)C2 [Compound 446, 2-benzyl-2-azaspiro[3.3]heptan-6-yl (2R,5S)-4-(6-fluoro-1,3-benzoxazol-2-yl)-2,5-dimethylpiperazine-1-carboxylate] yielded a Ki of 10 to 100 nM.
C[C@@H]1CN(c2nc3cc(F)c(F)cc3s2)C[C@H](C)N1C(=O)OC1CC2(C1)CN(Cc1ccccc1)C2 [Compound 447, 2-benzyl-2-azaspiro[3.3]heptan-6-yl (2R,6S)-4-(5,6-difluoro-1,3-benzothiazol-2-yl)-2,6-dimethylpiperazine-1-carboxylate] was tested, and the Ki was < 10 nM.
C[C@@H]1CN(c2nc3cc(F)c(F)cc3s2)[C@@H](C)CN1C(=O)OC1CC2(C1)CN(Cc1ccccc1)C2 [Compound 449, 2-benzyl-2-azaspiro[3.3]heptan-6-yl (2R,5S)-4-(5,6-difluoro-1,3-benzothiazol-2-yl)-2,56-dimethylpiperazine-1-carboxylate] was tested, and the Ki was < 10 nM.
For C[C@@H]1CN(c2ncc3cc(F)ccc3n2)C[C@H](C)N1C(=O)OC1CC2(C1)CN(Cc1ccccc1)C2 [Compound 453, 2-benzyl-2-azaspiro[3.3]heptan-6-yl (2R,6S)-4-(6-fluoroquinazolin-2-yl)-2,6-dimethylpiperazine-1-carboxylate], the Ki was 10 to 100 nM.
Work on C[C@@H]1CN(c2ncc(C(F)(F)F)cn2)C[C@H](C)N1C(=O)OC1CC2(C1)CN(Cc1ccc(F)cc1)C2 [Compound 455, 2-[(4-fluorophenyl)methyl]-2-azaspiro[3.3]heptan-6-yl (2R,6S)-2,6-dimethyl-4-[5-(trifluoromethyl)pyrimidin-2-yl]piperazine-1-carboxylate] yielded a Ki of 10 to 100 nM.
In the case of C[C@@H]1CN(c2ncc(C(F)(F)F)cn2)[C@@H](C)CN1C(=O)OC1CC2(C1)CN(Cc1ccc(F)cc1)C2 [Compound 456, 2-[(4-fluorophenyl)methyl]-2-azaspiro[3.3]heptan-6-yl (2R,5S)-2,5-dimethyl-4-[5-(trifluoromethyl)pyrimidin-2-yl]piperazine-1-carboxylate], the Ki is reported as < 10 nM.
Work on C[C@@H]1CN(c2ncc(C(F)(F)F)cn2)CCN1C(=O)OC1CC2(C1)CN(Cc1ccc(F)cc1)C2 [Compound 457, 2-[(4-fluorophenyl)methyl]-2-azaspiro[3.3]heptan-6-yl (2R)-2-methyl-4-[5-(trifluoromethyl)pyrimidin-2-yl]piperazine-1-carboxylate] yielded a Ki of 100 to 1000 nM.
With C[C@@H]1CN(c2cnc(C(F)(F)F)cn2)CCN1C(=O)OC1CC2(C1)CN(Cc1ccc(F)cc1)C2 [Compound 458, 2-[(4-fluorophenyl)methyl]-2-azaspiro[3.3]heptan-6-yl (2R)-2-methyl-4-[5-(trifluoromethyl)pyrazin-2-yl]piperazine-1-carboxylate] the Ki was 10 to 100 nM.
For C[C@@H]1CN(c2ncc(OC(F)F)cn2)C[C@H](C)N1C(=O)OC1CC2(C1)CN(Cc1ccccc1)C2 [Compound 462, 2-benzyl-2-azaspiro[3.3]heptan-6-yl (2R,6S)-4-[5-(difluoromethoxy)pyrimidin-2-yl]-2,6-dimethylpiperazine-1-carboxylate], the Ki was < 10 nM.
